Patent publication US20120244567A1, “HUMAN EMBRYONIC STEM CELLS FOR HIGH THROUGHOUT DRUG SCREENING” (BUCK INSTITUTE FOR RESEARCH ON AGING, priority 2009, published 2012)
Structures can show the parent of a compound that is named as a salt.

What was measured:
hESC-derived NSCs = assay: ATP assay in hESC-derived NSCs (96-well, primary screen and retest); assay type: cell-based, human; design: cytotoxicity: dose or concentration left out as unconfirmed; toxicity to NSCs (reduced ATP concentrations) / ATP levels in NSC population: unit of the concentration uncertain
Experimental: EBs were then cultured for additional 2-3 days in suspension in neural induction media containing DMEM/F12 with Glutamax, 1×NEAA, 1×N2 and FGF2 (20 ng/ml) prior to attachment on cell culture plates. […] To obtain a pure population of NSCs, rosettes were manually isolated and dissociated into single cells using Accutase. The NSCs population was expanded in Neurobasal media containing 1×NEAA, 1×L-Glutamine (2 mM), 1×B27, LIF and FGF2 20 ng/ml.
Media was changed every day for hESCs and every other day for NSCs and additionally changed prior to drug treatment. The cells were treated with compounds from the NINDS library diluted in […] of either ESC or NSC media to a final concentration of 2.5 mM in 0.01% DMSO. […] For all sampling, ESC and NSC plates were processed in parallel for one drug or control condition at a time.
(§1) For ATP measurements, the media was removed, cells were washed 1× in milliQ water and reconstituted in […] ATP-Lite Mammalian Lysis Buffer and shaken for 5 minutes. Two […] aliquots of lysed cells were replated onto separate 96 well plates for later protein measurements.
(§2) To identify compounds that are toxic to hESCs, hESC-derived NSCs, or both, we screened 720 FDA-approved drugs of the NINDS collection by testing the toxicity of each drug at a dose of 2.5 mM. For endpoint measurement of cell death caused by drug toxicity, we used a widely accepted ATP assay that measures changes in ATP level as an indicator of cellular response to cell death. In this assay, total ATP content per well was measured and normalized to the total cellular protein.
Three concentrations of each compound (1 mM, 2.5 mM and 10 mM) were used in the retest.

[1] = system: human fetal-derived astrocytes; assay: Effect on human astrocytes (cell death); assay type: cell-based; conditions: up to 48 hours after treatment
Source text: Media was changed every other day and cells were passaged once a week at a 1:4 ratio.

hESCs = assay: ATP assay in hESCs (96-well); assay type: cell-based, human; design: dose or concentration left out as unconfirmed; conditions: 48 h (FIG. 5)
Experimental: Media was changed every day for hESCs and every other day for NSCs and additionally changed prior to drug treatment. […] […] For all sampling, ESC and NSC plates were processed in parallel for one drug or control condition at a time.
as §1, §2

## CCCCc1oc2ccccc2c1C(=O)c1cc(I)c(OCCN(CC)CC)c(I)c1 [Amiodarone Hydrochloride]
hESC-derived NSCs; 10 (unit uncertain), 48 h (FIG. 5)
  ATP levels in NSC population: less than 15 % of the control mean
hESC-derived NSCs; Homo sapiens, NINDS primary screen, 48 hours, read-out: NSC ATP values below the control mean
  cytotoxicity: ≥ 15%
hESC-derived NSCs; retest, FIG. 2 panel B
  effect on NSC survival among dose responsive compounds: most dramatic effect on NSC survival
[1]
  astrocyte cell death: did not cause astrocyte cell death
hESCs
  effect seen in hESC (ATP levels): intermediate between NSCs and dopaminergic neurons
